Test results from the supplement of paper PMC12613149.

Tests used:
[1] = collision cross section (TIMS, N2 drift gas) of the primary ion; higher = larger gas-phase ion size
[2] = reversed-phase LC retention time (C18, 15 min MeOH gradient); higher = more hydrophobic / later elution
[3] = ionization mode: ESI+, ion species: [M+H]+
[4] = ionization mode: ESI-, ion species: [M-H]-

Row | Structure (SMILES) | collision cross section [1, 3] [Å²] | reversed-phase LC retention time [2, 3] [min] | collision cross section [1, 4] [Å²] | reversed-phase LC retention time [2, 4] [min]
1 | COc1cc(C)c(C(=O)c2c(OC)ccc(Br)c2C)c(OC)c1OC [Metrafenone] | 184.27 | 15.9 |  | 
2 | CSc1nnc(C(C)(C)C)c(=O)n1N [Metribuzin] | 147.77 | 11.4 |  | 
3 | Cc1ncc([N+](=O)[O-])n1CCO [Metronidazole] | 132.43 | 5.53 |  | 
4 | CN(C)c1ccc(C(=O)c2ccc(N(C)C)cc2)cc1 [Michler's ketone] | 166.78 | 14.9 |  | 
5 | Clc1ccc(COC(Cn2ccnc2)c2ccc(Cl)cc2Cl)c(Cl)c1 (stereo not drawn) [Miconazole] | 191.81 | 15.6 |  | 
6 | C[C@@H]1C[C@H]2[C@@H]3CCC4=CC(=O)C=C[C@]4(C)[C@@]3(Cl)[C@@H](O)C[C@]2(C)[C@@]1(OC(=O)c1ccco1)C(=O)CCl [Mometasone fuorate] | 217.59 | 15.2 | 214.51 | 15.7
7 | CCC1(C2OC(C3OC(O)(CO)C(C)CC3C)CC2C)CCC(C2(C)CCC3(CC(O)C(C)C(C(C)C(OC)C(C)C(=O)O)O3)O2)O1 (stereo not drawn) [Monensin] |  |  | 244.26 | 17.5
8 | CCCCC(C#N)(Cn1cncn1)c1ccc(Cl)cc1 (stereo not drawn) [Myclobutanil] | 175 | 14.5 |  | 
9 | COc1c(C)c2c(c(O)c1C/C=C(\C)CCC(=O)O)C(=O)OC2 [Mycophenolic acid] | 169.04 | 13.4 | 175.76 | 11.3
10 | CC(C)(C)CC(C)(C)c1ccc(Nc2ccc(C(C)(C)CC(C)(C)C)cc2)cc1 [N,N-Bis(4-tert-octylphenyl)amine] | 220.04 | 20.2 |  | 
11 | CCCCCCCCCCN(C)C [N,N-Dimethyldecylamine] | 158.65 | 13.7 |  | 
12 | CCCCCCCCCCCC[N+](C)(C)[O-] [N,N-Dimethyldodecylamine N-oxide] | 175.77 | 15.6 |  | 
13 | CCCCCCCCCCCCN(C)C [N,N-Dimethyldodecylamine] | 169.68 | 15.4 |  | 
14 | CCCCCCCCCCCCCC[N+](C)(C)[O-] [N,N-Dimethyltetradecylamine-N-oxide] | 184.89 | 16.8 |  | 
15 | CCCCCCCCCCCCCCN(C)C [N,N-Dimethyltetradecylamine] | 179.2 | 16.6 |  | 

The next lines start with the values.

Row | collision cross section [1, 3] [Å²] | reversed-phase LC retention time [2, 3] [min] | collision cross section [1, 4] [Å²] | reversed-phase LC retention time [2, 4] [min] | Structure (SMILES)
16 | 171.87 | 9.39 |  |  | COCCc1ccc(OCC(O)CNC(C)C)cc1 (stereo not drawn) [Metoprolol]
17 | 160.18 | 9.54 |  |  | CN1CCN2c3ncccc3Cc3ccccc3C2C1 (stereo not drawn) [Mirtazapine]
18 |  |  | 151.15 | 10.2 | CC(C)COC(=O)c1ccccc1C(=O)O [Mono-iso-butyl-phthalate]
19 | 155.89 | 17.1 | 159.96 | 10.7 | O=C(O)c1ccccc1C(=O)OCc1ccccc1 [Monobenzyl phthalate]
20 | 243.08 | 17.7 | 244.69 | 17 | CC(C)(O)c1ccccc1CCC(SCC1(CC(=O)O)CC1)c1cccc(C=Cc2ccc3ccc(Cl)cc3n2)c1 (stereo not drawn) [Montelukast]
21 | 141.17 | 13.5 |  |  | CCCCN(C=O)CCCC [N,N-Di-n-butylformamide]
22 | 159.08 | 16.1 |  |  | CCCCCCCCCC(=O)N(C)C [N,N-Dimethyldecan-1-amide]
23 | 136.2 | 3.22 |  |  | C=C(C)C(=O)NCCCN(C)C [N-(3-Dimethylamino)propyl)methacrylamide]
24 | 154.74 | 7.85 |  |  | CC(=O)Nc1c(C)n(C)n(-c2ccccc2)c1=O [N-Acetyl-4-aminoantipyrine]
25 |  |  | 148.3 | 12.8 | CCCCNS(=O)(=O)c1ccccc1 [N-Butylbenzenesulfonamide]
